According to US6124327A, “HIV integrase inhibitors” (Merck & Co., Inc., priority 1998, dated 2000):

Assays:
[1] = target: T1, HIV integrase (Human immunodeficiency virus type 1 group M subtype B, UniProt P04585); assay: Strand Transfer Assay for HIV Integrase (microtiter assay, processed donor (HIV) DNA to nonspecific, nicked target DNA); assay type: biochemical; settings: inhibitor at various concentrations in the range of 1 to 100 μM
T1 construct: HIV integrase
Method: Strand Transfer Assay for HIV Integrase
A microtiter assay for strand transfer of processed donor (HIV) DNA to nonspecific, nicked target DNA was conducted according to Wolfe, et al., J. Virol., 70, 1424 (1996), herein incorporated by reference for these purposes. To assay inhibition of such strand transfer by HIV integrase, the reaction was conducted with inhibitor having various concentrations in the range of 1 to 100 μM.

[2] = target: T2, HIV-1 integrase (Human immunodeficiency virus type 1 group M subtype B, UniProt P04585); assay: HIV Integrase Substrate Cleavage (endonucleolytic processing and joining of the 3' end of HIV long terminal repeat terminus; coupled reaction); assay type: biochemical; settings: inhibitor at various concentrations in the range of 1 to 100 μM
T2 construct: HIV-1 integrase
Method: HIV Integrase Substrate Cleavage
As assay for endonucleolytic processing and joining of the 3' end of HIV long terminal repeat terminus by HIV-1 integrase was conducted according to Hazuda, et al., Nud. Acids Res., 22, 1121 (1994), herein incorporated by reference for these purposes. To assay inhibition of the coupled reaction, the assay was conducted with inhibitor having various concentrations in the range of 1 to 100 μM.

Row | Structure (SMILES) | IC50 [1] | IC50 [2]
1 | CCCC(CCCCCCCc1cc(O)cc(O)c1C(=O)OC(CCC)CCCCCCCc1cc(O)cc(O)c1)OC(C)=O (centres unmarked) [Compound A] | 32 µM | 3.2 µM
2 | CCCC(O)CCCCCCCc1cc(O)cc(O)c1C(=O)OC(CCC)CCCCCCCc1cc(O)cc(O)c1 (centres unmarked) [Compound B] | 17 µM | 6.1 µM
3 | CCC/C=C/CCCCCCc1cc(O)cc(O)c1C(=O)OC(CCC)CCCCCCCc1cc(O)cc(O)c1 (centres unmarked) [Compound C] | > 88 µM | 3.5 µM
4 | CCCC(O)CCCCCCCc1cc(O)cc(O)c1 (centres unmarked) [Compound D] | > 100 µM | 93 µM
